What follows are compounds tested on SK-MEL-5 viability, ATP luminescence (CellTiter-Glo), 24 h (assay: SK-MEL-5 parental cell viability loss, dose response, orthogonal assay for MITF inhibitor project, CellTiter-Glo, cherry-picked, set 3 (AID 493240)).

Row | SMILES | AC50
1 | CCOC(=O)c1ccc2c(c1)n(CC)c(/C=C/N(C)c1ccccc1)[n+]2CC | 13.3 µM
2 | Cc1ccc(C(=O)N/N=C/c2ccc([N+](=O)[O-])s2)cc1 | 26.7 µM
3 | Cc1ccc(-c2nc(C(=O)NCCCN(C)C)cc3c2[nH]c2ccccc23)cc1 | 18.8 µM
4 | COC1=C(Nc2ccccc2)C(=O)c2ccccc2C1=O | 5.11 µM
5 | CC(C)n1cc(/C=C/c2cc[n+](C)cc2)c2ccccc21 | 23 µM
6 | CN(C)S(=O)(=O)c1ccc(-c2csc(N/N=C/c3ccc(O)cc3)n2)cc1 | 17.5 µM
7 | CC1CC2(C)Oc3ccccc3CC2C(C)C1CNCCCN(C)C (centres undefined) | 16.2 µM
8 | COc1ccccc1CNCC(O)Cn1c2ccccc2c2ccccc21 (centres undefined) | 19 µM
9 | N#C/C(=C(/O)c1ccc([N+](=O)[O-])o1)c1nc2ccccc2[nH]1 | 16.3 µM
10 | c1ccc2cc3c(NCCN4CCOCC4)ccnc3cc2c1 | 3.68 µM
11 | CN(C)c1ccc(C2=NOC(CN3C(=O)c4ccccc4S3(=O)=O)C2)cc1 (centres undefined) | < 0.015 µM
12 | CCN(CC)CCn1nc2c3c(cccc3c1=O)-c1ccccc1-2 | 20.3 µM
13 | COc1ccccc1NC(=O)c1nc(S(=O)(=O)Cc2ccccc2)ncc1Cl | 29.4 µM
14 | CN1CCC(N(C)C(=O)/C=C/c2cn(-c3ccccc3)nc2-c2cccs2)CC1 | 20.1 µM
15 | COC(=O)c1ccc2c(c1O)C(=O)c1ccccc1C2=O | 3.74 µM
16 | CC(C)(C)c1ccc(-c2cn(-c3ccc(Br)cc3)c3[n+]2CCCS3)cc1 | 11.4 µM
17 | Cc1c(CCOC(=O)c2ccc(Cl)cc2Cl)sc[n+]1CC(=O)c1ccc(Br)cc1 | 28.8 µM
18 | Cc1ccccc1-c1nc(-c2ccccn2)no1 | 20.7 µM
19 | N/C(=N\OC(=O)c1ccccc1Cl)c1ccccn1 | 28.8 µM
20 | COc1ccc(C(=O)/C(C#N)=N/Nc2ccc([N+](=O)[O-])cc2)cc1 | 18.5 µM
21 | CCNC1=C(Cl)C(=O)c2ccccc2C1=O | 9.44 µM
22 | N=c1n(Cc2ccc(Cl)cc2)c2ccccc2n1CC(O)COc1ccccc1 (centres undefined) | 19.1 µM
23 | Cc1ccc(C(=O)C[n+]2cc(-c3ccc(C)cc3)n3c2CCCCC3)cc1 | 14.4 µM
24 | CC(C)(C)c1ccc(Cn2c(=N)n(CC(O)c3ccco3)c3ccccc32)cc1 (centres undefined) | 19.9 µM
25 | O=C1c2cc(F)ccc2-n2c1nc1ccccc1c2=O | 5.5 µM
26 | CC1(C)CC(NC(=O)c2ccc(Cl)c(S(=O)(=O)N(Cc3ccccc3)c3ccccc3)c2)CC(C)(C)N1 | 23.3 µM
27 | COC(=O)C1=C(C)N(Cc2ccccc2)C(=NCC(C)C)N[C@H]1c1cccc(C(F)(F)F)c1 | 17.4 µM

Row | SMILES | AC50
28 | CCN1CCN(C2=C(NS(=O)(=O)c3ccc(C)cc3)C(=O)c3ccccc3C2=O)CC1 | 21.9 µM
29 | COc1ccc(Br)cc1/C=C/C(=O)c1ccc(NC(C)=O)cc1 | 26.7 µM
30 | C#CC(=O)N(c1ccc(OC)c(OC)c1)C(C(=O)NC1CCCC1)c1cccs1 (centres undefined) | 22.1 µM
31 | O=C(O)/C=C/C(=O)c1ccc2c(c1)CCc1ccccc1-2 | 30.5 µM
32 | CC1=NNC(=O)/C1=C\c1cn(-c2ccccc2)nc1-c1ccc(F)cc1 | 15.5 µM
33 | CCCCN1CCc2c1nc1ccc(Br)cc1c2N | 25.6 µM
34 | CCN1c2ccccc2NC2N=C(OC)C(c3ccccc3)C21 (centres undefined) | 14 µM
35 | N=c1n(CC(=O)c2ccc([N+](=O)[O-])cc2)c2ccccc2n1Cc1ccc(Cl)cc1 | 16.9 µM
36 | COc1ccc(C(CCNC(C)c2ccccc2)c2ccc(F)cc2)cc1 (centres undefined) | 17.6 µM
37 | O=C(NCC1CCCCC1)C1(CC2CC(c3cccc(Br)c3)=NO2)CCNCC1 (centres undefined) | 18 µM
38 | CC[n+]1c(/C=C/N(C)c2ccccc2)sc2ccc(Cl)cc21 | 19.8 µM
39 | Cc1ccc(C(C)C)c(OCc2nn(CC(=O)c3ccc(OC(F)F)cc3)c3[n+]2CCCCC3)c1 | 20.2 µM
40 | COCCN(CC(=O)NC1CCCCC1)C(=O)/C=C/C(=O)c1ccc(OC)cc1O | 10.5 µM
41 | N=c1n(CC(=O)c2ccc(Br)s2)c2ccccc2n1Cc1ccccc1 | 20 µM
42 | Nc1c(N(CCC2=CCCCC2)C(=O)COc2ccc(F)cc2)c(=O)[nH]c(=O)n1Cc1ccccc1 | 10.9 µM
43 | O=c1c(Cl)c2oc3ccccc3nc-2c2ccccc12 | 5.67 µM
44 | CCCCn1c(=N)n(CC(=O)c2ccc(Br)s2)c2ccccc21 | 18.5 µM
45 | O=C(Nc1ccc(N2CCCC2)c(Cl)c1)c1ccc([N+](=O)[O-])o1 | 29.9 µM
46 | CCc1cc[n+](C2=C([O-])c3ccccc3C(=O)/C2=N\S(=O)(=O)c2cccs2)cc1 | 5.72 µM
47 | N=c1n(CCN2CCCC2)c2ccccc2n1CC(O)c1ccc(Cl)c(Cl)c1 (centres undefined) | 16.3 µM
48 | CN(C)CCCN(C(=O)CCc1ccccc1)c1nc2ccc(Br)cc2s1 | 16.5 µM
49 | CC1CCC/C=C/C(=O)c2c(O)cc(O)cc2CC(=O)O1 (centres undefined) | 31.7 µM
50 | CC(C)Oc1ccc(C(CCN)C2CCCCC2)cc1 (centres undefined) | 16.2 µM
51 | CC(C)(c1ccccc1)c1ccc(OCC(O)CNC2CCN(Cc3ccccc3)CC2)cc1 (centres undefined) | 19.9 µM
52 | Cc1ccc(S(=O)(=O)N2CCCCC2)cc1NC(=O)Cn1ncc(Cl)c(Cl)c1=O | 19.3 µM
53 | O=C(N/N=C/c1ccc([N+](=O)[O-])o1)c1ccc(O)cc1 | 16.7 µM
54 | Cc1ccc(C(O)(c2ccc(C)c(C)c2)C2CN3CCC2CC3)cc1C (centres undefined) | 17.1 µM

Row | SMILES | AC50
55 | CCn1c(/C=C/N(C)c2ccccc2)[n+](CC)c2ccc(Cl)cc21 | 13.9 µM
56 | COc1ccc(S(=O)(=O)N(C(C)=O)c2ccc(OC(C)=O)c3ccccc23)cc1[N+](=O)[O-] | 17 µM
57 | O=C(/C=C/Nc1ccccc1Br)c1ccccn1 | 21.9 µM
58 | CCN(CC)CCNC(=O)c1c(C)n(-c2ccccc2)c2cc(Br)c(OC)cc12 | 19.8 µM
59 | C#CC(=O)N(c1ccc(OC)cc1OC)C(C(=O)NC1CCCC1)c1cccs1 (centres undefined) | 19.9 µM
60 | CCOC(=O)c1ccc(NC(=O)c2ccc(C)c(S(=O)(=O)N3CCOCC3)c2)cc1 | 17.5 µM
61 | Cc1ccc(Oc2c(C(N)=O)cc([N+](=O)[O-])cc2[N+](=O)[O-])cc1 | 21.8 µM
62 | COc1ccc(-n2cc(-c3ccc(C)cc3)[n+]3c2SCC3)cc1 | 19.9 µM
63 | CC1CCC(C(C)C)C(OC(=O)Cn2c(-c3ccccc3)[n+](C)c3ccccc32)C1 (centres undefined) | 5.45 µM
64 | CC(=O)N(C)C1=C(N2CCOCC2)C(=O)c2ccccc2C1=O | 7.92 µM
65 | O=C(COc1ccc(Cl)cc1Cl)Nc1ccccn1 | 19.6 µM
66 | COc1ccc2oc(C(=O)Nc3ccc(S(=O)(=O)N(C)C4CCN(C)CC4)cc3)c(C)c2c1 | 17.5 µM
67 | O=[N+]([O-])c1ccc(S(=O)(=O)CC(CN2CCCCC2)N2CCCCC2)cc1 (centres undefined) | 29.8 µM
68 | COc1ccccc1C(=O)Nc1nc(-c2ccc(S(=O)(=O)N3CCOCC3)cc2)cs1 | 20.8 µM
69 | O=C(COc1ccccc1)N/N=C/c1ccc([N+](=O)[O-])o1 | 22.9 µM
70 | Cc1ccccc1-c1nc(CN2CCC(C(=O)NCCCN3CCCC(C)C3)CC2)c(C)o1 (centres undefined) | 28.9 µM
71 | COc1ccc(S(=O)(=O)Nc2ccc(O)c3ccccc23)cc1 | 14.7 µM
72 | Cc1ccc(S(=O)(=O)/N=C2\C(=O)c3ccccc3C([O-])=C2n2cc[n+](CCC(C)C)c2)cc1 | 15.6 µM
73 | CCOc1ccc(-n2c(-c3ccc(OC)cc3)c[n+]3c2CCCCC3)cc1 | 19.6 µM
74 | O=C(Cn1ncc(Cl)c(Cl)c1=O)N1CCc2ccccc21 | 22.6 µM
75 | O=C(Nc1cccc(Cl)c1)Nc1cc(S(=O)(=O)N2CCCCC2)ccc1Cl | 22.9 µM
76 | CCOc1c(Br)cc(CNC2CCCCCCC2)cc1OC | 16.5 µM
77 | COC(=O)C1=C(C)N(Cc2ccccc2)C(=NCc2ccccc2)N[C@H]1c1ccccc1 | 26.8 µM
78 | O=C1C(Cl)=C(Nc2ccccc2)C(=O)c2ccccc21 | 6.7 µM
79 | Cc1[nH]c2ccccc2c1C(=O)CCl | 22.1 µM

From PubChem BioAssay AID493240 (Broad Institute, 2011)
